According to publication PMC9785812 (Pharmaceutics, 2022):
Values joined by “and” are separate entries in the source; they are usually repeats but may differ in a detail not shown here. Equal values may be shown once.

Legend:
[1] = Ex vivo biodistribution in healthy BALB/c mice; design: species or system mouse
Experimental: Quantification of activity was performed with an automated gamma counter equipped with a 3-in NaI(Tl) detector coupled to a multichannel analyzer (2480 Wizard^2, Perkin Elmer, Zaventem, Belgium). The results were corrected for background signal, physical decay during counting and detector dead time.
All animal experiments were performed in compliance with the Ethical Committee Animal Studies of Medanex Clinic (EC MxCl 2020-163 and EC MxCl 2021-173), the Belgian laboratory animal legislation and the European Communities Council Directive of 22 September 2010 (2010/63/EU). Male BALB/c and NMRI nude mice were purchased from Janvier (Bio Services, Uden, The Netherlands) and housed in ventilated cages under standard laboratory conditions (12 h light/dark cycle) at the animal facility of SCK CEN. All animals had access to food and water ad libitum.
Additionally, similar biodistribution studies were performed with free (unlabeled) [^153Sm]SmCl3 to identify the organs with ^153Sm accumulation in case of release from the complex. […] The mice were sacrificed by an overdose pentobarbital (200 µL of 60 mg/mL) 1, 4, 24 and 72 h post-injection (p.i.) (n = 3–4 per time point). Blood was collected via cardiac puncture. Organs of interest were collected in tared tubes and weighed. The activity in the different organs was measured in the gamma counter. For the calculation of the total activity in the blood, bone and muscle, the masses were assumed to be, respectively, 7, 12 and 40% of the total body mass. Data were expressed as a percentage of injected activity (%IA) and standardized uptake value (SUV). %IA was calculated as (counts per min (cpm) in organ)/(IA converted to cpm) × 100. SUV was calculated as (activity in cpm in organ/weight of organ in g)/(IA/total body weight in g).

[2] = tested on: SSTR2 in CA20948 cells; details: cited from earlier work
[3] = 1 h p.i., healthy male BALB/c mice, ~2-3 MBq i.v., mean ± SD, n = 3-4
[4] = 4 h p.i., healthy male BALB/c mice, ~2-3 MBq i.v., mean ± SD, n = 3-4
[5] = 24 h p.i., healthy male BALB/c mice, ~2-3 MBq i.v., mean ± SD, n = 3-4
[6] = 72 h p.i., healthy male BALB/c mice, ~2-3 MBq i.v., mean ± SD, n = 3-4
[7] = mouse, in vivo, iv, listed as [153Sm]SmCl3

## [153Sm+3].[Cl-].[Cl-].[Cl-] [[^153Sm]SmCl3, reference compound]
[1]; [3]
  Blood SUV: 2.0 ± 0.5
  Heart SUV: 0.7 ± 0.2
  Lungs %IA: 0.9 ± 0.2 %IA
  Lungs SUV: 1.0 ± 0.2
  Pancreas SUV: 0.2 ± 0.1
  Stomach %IA: 0.5 ± 0.2 %IA
[1]; [4]
  Bone %IA: 20.1 ± 6.7 %IA
  Heart %IA: 0.2 ± 0.0 %IA
  Intestines %IA: 1.7 ± 0.2 %IA
  Stomach %IA: 0.2 ± 0.0 %IA
[1]; [5]
  Blood %IA: 0.2 ± 0.0 %IA
  Heart SUV: 0.2 ± 0.0
  Intestines %IA: 1.0 ± 0.2 %IA
  Lungs SUV: 0.2 ± 0.0
  Stomach %IA: 0.2 ± 0.2 %IA
[1]; [6]
  Lungs SUV: 0.2 ± 0.0
  Muscle %IA: 0.9 ± 0.2 %IA
  Stomach %IA: 0.2 ± 0.1 %IA
[1]; mouse, in vivo, iv
  Bone SUV: 3.1 ± 1.3
  Brain SUV: 0.0 ± 0.0
  Liver SUV: 7.7 ± 1.8
  Lungs SUV: 0.4 ± 0.0
[1]; [7]
  Bone %IA: 12.1 ± 0.3 %IA and 17.6 ± 3.7 %IA and 21.9 ± 8.9 %IA
  Bone SUV: 1.7 ± 0.0 and 2.9 ± 1.0 and 2.5 ± 0.5
  Excreted %IA: 26.0 ± 8.0 %IA and 21.4 ± 3.9 %IA and 24.2 ± 4.2 %IA and 34.8 ± 11.6 %IA
  Intestines %IA: 2.4 ± 0.5 %IA and 1.5 ± 0.5 %IA
  Liver %IA: 35.9 ± 6.4 %IA and 54.3 ± 5.3 %IA and 53.9 ± 4.2 %IA and 42.9 ± 9.2 %IA
  Liver SUV: 6.9 ± 0.5 and 11.2 ± 1.3 and 10.5 ± 0.8

## O=C([O-])CN(CCN(CC(=O)[O-])CC(=O)[O-])CCN(CC(=O)[O-])CC(=O)[O-].[177Lu+3] [[^177Lu]Lu-DTPA]
[2]
  affinity towards SSTR2: complete lack of affinity
